The text below walks through data of patent publication US12559529B2, “NPY2 receptor agonists” (Boehringer Ingelheim International GmbH, priority 2019, dated 2026).

The target of one assay is T1, human NPY4 receptor (Homo sapiens, UniProt P50391).
T1 construct: expressed in transfected cells; host or cells: CHO-K1
In words: HTRF cAMP Gi assay, hY4R. Type of assay: cell-based. Conditions: Table 4; CHO-K1 cells. For orientation: TR-FRET usually uses a lanthanide donor and a delayed reading to cut background.

Another assay has as its target T2, human NPY5 receptor (Homo sapiens, UniProt Q15761).
T2 sequence (Q15761 1-445): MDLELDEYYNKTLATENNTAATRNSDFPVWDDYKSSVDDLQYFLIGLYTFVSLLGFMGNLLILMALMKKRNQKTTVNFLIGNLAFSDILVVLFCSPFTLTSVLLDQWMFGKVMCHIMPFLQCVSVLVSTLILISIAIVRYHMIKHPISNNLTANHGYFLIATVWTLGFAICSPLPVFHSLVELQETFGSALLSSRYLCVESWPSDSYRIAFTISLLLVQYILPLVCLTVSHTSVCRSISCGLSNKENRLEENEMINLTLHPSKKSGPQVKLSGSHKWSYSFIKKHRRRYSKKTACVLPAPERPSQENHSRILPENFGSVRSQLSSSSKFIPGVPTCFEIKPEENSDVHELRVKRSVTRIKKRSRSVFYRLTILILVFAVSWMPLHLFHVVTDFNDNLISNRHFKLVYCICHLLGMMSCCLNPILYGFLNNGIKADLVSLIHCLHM
In words: HTRF cAMP Gi assay, hY5R.

A further assay deals with T3, human NPY1 receptor (Homo sapiens, UniProt P25929).
T3 construct: expressed in transfected cells; host or cells: CHO-K1
T3 sequence (P25929 1-384): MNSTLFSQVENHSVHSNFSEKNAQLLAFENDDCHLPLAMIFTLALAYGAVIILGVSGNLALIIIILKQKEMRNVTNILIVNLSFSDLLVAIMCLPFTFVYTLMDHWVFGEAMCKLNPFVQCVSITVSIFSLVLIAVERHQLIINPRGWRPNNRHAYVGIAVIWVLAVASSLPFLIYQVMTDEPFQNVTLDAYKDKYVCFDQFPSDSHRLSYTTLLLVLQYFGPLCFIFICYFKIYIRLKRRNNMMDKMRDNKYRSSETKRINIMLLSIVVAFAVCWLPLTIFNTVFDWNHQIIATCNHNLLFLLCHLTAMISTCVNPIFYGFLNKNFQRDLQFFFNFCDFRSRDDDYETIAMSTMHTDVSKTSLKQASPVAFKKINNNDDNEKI
In words: HTRF cAMP Gi assay, hY1R. Type of assay: cell-based. Conditions: Table 4; CHO-K1 cells.

For assay [1], the target named is T4, Human Neuropeptide Y2 Receptor (Homo sapiens, UniProt P49146).
T4 construct: purchased CHEMICON HTS066M
T4 sequence (P49146 1-381): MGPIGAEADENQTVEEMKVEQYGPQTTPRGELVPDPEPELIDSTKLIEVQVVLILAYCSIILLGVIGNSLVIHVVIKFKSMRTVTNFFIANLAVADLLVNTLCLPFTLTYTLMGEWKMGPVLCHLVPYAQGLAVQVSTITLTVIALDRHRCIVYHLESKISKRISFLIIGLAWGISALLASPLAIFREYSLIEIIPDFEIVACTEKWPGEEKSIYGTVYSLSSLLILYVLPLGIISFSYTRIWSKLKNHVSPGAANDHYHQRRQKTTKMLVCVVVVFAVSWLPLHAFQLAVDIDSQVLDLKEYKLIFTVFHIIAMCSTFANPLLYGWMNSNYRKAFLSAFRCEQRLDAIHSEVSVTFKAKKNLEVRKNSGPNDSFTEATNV
The assay can be described thus: Activity (RLB) after incubation in solutions at different pH values. Type of assay: binding. Conditions: apparent Ki of filtrate after 2 h in buffer. As for the experimental part:
The filtration RLB assay was carried out in 96-well plates in a final volume of 100 μl per well. Freeze-dried test peptides were dissolved in 100% dimethyl sulfoxide (DMSO) to stock solutions of 1 mM and serial dilutions were performed in assay buffer (50 mM HEPES, 5 mM MgCl2, 1 mM CaCl2), pH 7.4) containing 0.2% ovalbumin. […] Next, 80 μL membranes (HTS066M, ChemiSCREEN™ Human Neuropeptide Y2 Receptor Membrane Preparation, CHEMICON) were added to each well to give a final protein concentration of 0.5 μg/well. The plates were sealed and incubated at room temperature for 2 hours in a plate shaker set at 400 rpm. The incubation was stopped by vacuum filtration onto 0.5% poly-ethylene amine (PEI) presoaked GF/C filters using a 96-well FilterMate™ harvester (Perkin Elmer) followed by four washes with 300 μl/well ice-cold wash buffer (50 mM HEPES, 500 mM NaCl, pH7.4). Filter plates were then dried for 60 min at room temperature and the bottom of the plates was sealed with backing tape UniFilter-96. Finally, 50 μl/well scintillation counter cocktail (Microscint20, Packard) was added and the radioactivity was counted in the Packard TopCount NXT scintillation counter. IC50 values (the half maximal inhibitory concentration of the agonist) were calculated by nonlinear regression analysis of sigmoidal dose-response curves.
Peptides (as TFA salts) were weighed out in a filter unit (Mini-UniPrep Syringeless Filter 0.45 μm, Whatman), and 0.1 M sodium diphosphate buffer at pH 6.4 or 7.4, respectively, or 0.2 M TRIS buffer at pH 8.3 was added to achieve 10 mg/ml final concentration. The peptide was (partially) dissolved by shaking the filter unit horizontally at approx. 400 rpm for 2 hours at room temperature. The sample was filtered to remove any insoluble particles.

The target of another assay is T5, human NPY2 receptor (Homo sapiens, UniProt P49146).
T5 sequence (P49146 1-381): T4 sequence (P49146 1-381)
The assay can be described thus: HTRF cAMP Gi assay, hY2R.

In assay [2] the target is T4, Human Neuropeptide Y2 Receptor. In words: Radioligand binding competition assay (RLB). An outline of the steps:
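IC50 values come from nonlinear regression of sigmoidal dose-response curves of filter-bound radioactivity. Peptides competed with radioligand at human Y2 receptor membranes (0.5 μg protein/well) for 2 h at room temperature in pH 7.4 HEPES buffer containing Mg2+, Ca2+ and 0.2% ovalbumin.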

Setting [3] is: pH6.1-6.2, assumed 10 mg/ml, read-out: RLB 6 (pH6.1-6.2).
[4] abbreviates: Table 3, human 125I-PYY (1-36) 0.02 nM, Y2 receptor membranes, read-out: Ki.

Some results are limits rather than exact numbers.

T1 sequence (P50391 whole entry): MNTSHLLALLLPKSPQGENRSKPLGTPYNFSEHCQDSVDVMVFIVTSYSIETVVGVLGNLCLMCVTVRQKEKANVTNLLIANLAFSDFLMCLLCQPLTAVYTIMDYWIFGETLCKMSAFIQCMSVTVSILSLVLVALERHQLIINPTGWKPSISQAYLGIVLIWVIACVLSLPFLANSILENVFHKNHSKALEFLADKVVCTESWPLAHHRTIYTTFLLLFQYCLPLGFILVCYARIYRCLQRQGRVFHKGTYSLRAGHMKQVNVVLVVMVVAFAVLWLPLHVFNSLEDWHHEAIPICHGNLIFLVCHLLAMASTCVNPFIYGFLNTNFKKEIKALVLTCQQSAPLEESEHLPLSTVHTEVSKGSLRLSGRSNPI
Experimental for human NPY2 receptor: Briefly, the production of intracellular cAMP will generate a competition between unlabeled cAMP and exogenously added d2-cAMP for anti-cAMP antibodies conjugated to cryptate. CHO-K1 cells stably expressing the human NPY1, NPY2, NPY4 and NPY5 receptors were used with the cells brought to life from a frozen stock immediately before assay performance. 2000 cells per well were applied for all four NPY receptor subtype assays. A 384-well format was used applying a total volume of 20 μl using 5 μl cells, 2.5 μl peptide agonist, 2.5 μl forskolin and 5 μl of each of the fluorophores. […] Concentration-response evaluation of compounds was performed with 11 concentrations of agonist peptides (covering 3 decades). EC50 values were calculated by nonlinear regression using sigmoid concentration-response with variable slope.
Text for human NPY4 receptor: (§1) The Homogenous Time Resolved fluorescence (HTRF) technology optimized for Gi coupled receptors has thoroughly been described in Cisbio cAMP Gi kit manual. Briefly, the production of intracellular cAMP will generate a competition between unlabeled cAMP and exogenously added d2-cAMP for anti-cAMP antibodies conjugated to cryptate. CHO-K1 cells stably expressing the human NPY1, NPY2, NPY4 and NPY5 receptors were used with the cells brought to life from a frozen stock immediately before assay performance. 2000 cells per well were applied for all four NPY receptor subtype assays. A 384-well format was used applying a total volume of 20 μl using 5 μl cells, 2.5 μl peptide agonist, 2.5 μl forskolin and 5 μl of each of the fluorophores. […] Concentration-response evaluation of compounds was performed with 11 concentrations of agonist peptides (covering 3 decades). EC50 values were calculated by nonlinear regression using sigmoid concentration-response with variable slope.
Text for human NPY5 receptor: as §1

Usually EC50 stands for the concentration that produces a half-maximal response. Low readings indicate higher potency in that assay, high ones lower potency in that assay. Regarding `CC[C@H](C)[C@H](NC(=O)[C@H](CCC(=O)O)NC(=O)[C@H](CCC(=O)O)NC(=O)[C@@H]1CCCN1C(=O)[C@@H](NC(=O)[C@H](C)NC(=O)[C@H](CC(=O)O)NC(=O)[C@H](CCC(=O)O)NC(=O)[C@H](CCC(=O)O)NC(=O)[C@@H]1CCCN1C(=O)[C@H](CCCCNC(=O)COCCOCCNC(=O)COCCOCCNC(=O)CC[C@H](NC(=O)CCCCCCCCCCCCCCCCC(=O)O)C(=O)O)NC(=O)[C@H](CCC(=O)O)NC(=O)[C@@H]1CCCN1C(=O)[C@H](C)NC(=O)CC(C)C)[C@@H](C)O)C(=O)N[C@@H](CCC(N)=O)C(=O)N[C@@H](CCCNC(=N)N)C(=O)N[C@@H](Cc1ccc(O)cc1)C(=O)N[C@@H](Cc1ccc(O)cc1)C(=O)N[C@H](C(=O)N[C@@H](CO)C(=O)N[C@@H](CC(C)C)C(=O)N[C@@H](CCCNC(=N)N)C(=O)N[C@@H](Cc1c[nH]cn1)C(=O)N[C@@H](Cc1ccc(O)cc1)C(=O)N[C@@H](Cc1ccc(O)cc1)C(=O)N[C@@H](CC(N)=O)C(=O)N[C@@H](Cc1c[nH]c2ccccc12)C(=O)N[C@@H](CC(C)C)C(=O)N[C@H](C(=O)N[C@@H](CCCNC(=N)N)C(=O)N[C@@H](CCC(N)=O)C(=O)N[C@@H](CCCNC(=N)N)C(=O)N[C@@H](Cc1ccc(O)cc1)C(N)=O)[C@@H](C)O)C(C)C` [Compound 171, N{alpha-4}-(3-methylbutanoyl)-N{epsilon-7}-[2-(2-{2-[2-(2-{2-[(4S)-4-carboxy-4-(17-carboxyheptadecanamido)butanamido]ethoxy}ethoxy)acetamido]ethoxy}ethoxy)acetamido]-[4A,7K,9E,13T,17I,18Q,22V,28Y,30W,31L]hPYY (4-36)], the EC50 on human NPY4 receptor, at human NPY5 receptor and at human NPY1 receptor was above 5000 nM in each case. The Ki in assay [1] (setting [3]) was determined as 3 nM.

As for `CC(C)CC(=O)N[C@@H](C)C(=O)N1CCC[C@H]1C(=O)N[C@@H](CCC(=O)O)C(=O)N[C@@H](CCCCNC(=O)COCCOCCNC(=O)COCCOCCNC(=O)CC[C@H](NC(=O)CCCCCCCCCCCCCCCCC(=O)O)C(=O)O)C(=O)N1CCC[C@H]1C(=O)N[C@@H](CCC(=O)O)C(=O)N[C@@H](CCC(=O)O)C(=O)N[C@@H](CC(=O)O)C(=O)N[C@@H](C)C(=O)N[C@H](C(=O)N1CCC[C@H]1C(=O)N[C@@H](CCC(=O)O)C(=O)N[C@@H](CCC(=O)O)C(=O)N[C@@H](CC(C)C)C(=O)N[C@@H](CCC(N)=O)C(=O)N[C@@H](CCCCN)C(=O)N[C@@H](Cc1ccc(O)cc1)C(=O)N[C@@H](Cc1ccc(O)cc1)C(=O)N[C@H](C(=O)N[C@@H](CO)C(=O)N[C@@H](CC(C)C)C(=O)N[C@@H](CCCNC(=N)N)C(=O)N[C@@H](Cc1c[nH]cn1)C(=O)N[C@@H](Cc1ccc(O)cc1)C(=O)N[C@@H](Cc1ccc(O)cc1)C(=O)N[C@@H](CC(N)=O)C(=O)N[C@@H](Cc1c[nH]c2ccccc12)C(=O)N[C@@H](CC(C)C)C(=O)N[C@H](C(=O)N[C@@H](CCCNC(=N)N)C(=O)N[C@@H](CCC(N)=O)C(=O)N[C@@H](CCCNC(=N)N)C(=O)N[C@@H](Cc1ccc(O)cc1)C(N)=O)[C@@H](C)O)C(C)C)[C@@H](C)O` [Compound 231, N{alpha-4}-(3-methylbutanoyl)-N{epsilon-7}-[2-(2-{2-[2-(2-{2-[(4S)-4-carboxy-4-(17-carboxyheptadecanamido)butanamido]ethoxy}ethoxy)acetamido]ethoxy}ethoxy)acetamido]-[4A,7K,9E,13T,18Q,19K,22V,28Y,30W,31L]hPYY (4-36)], the EC50 on human NPY4 receptor is above 5000 nM; on human NPY5 receptor, above 5000 nM; on human NPY1 receptor, above 5000 nM; on human NPY2 receptor, 0.107 nM. Further, in assay [2] (setting [4]), the Ki stood at 1.96 nM.

Turning to `CC(C)CC(=O)N[C@@H](C)C(=O)N1CCC[C@H]1C(=O)N[C@@H](C)C(=O)N[C@@H](CCCCNC(=O)COCCOCCNC(=O)COCCOCCNC(=O)CC[C@H](NC(=O)CCCCCCCCCCCCCCCCC(=O)O)C(=O)O)C(=O)N1CCC[C@H]1C(=O)N[C@@H](CCC(=O)O)C(=O)N[C@@H](CCC(=O)O)C(=O)N[C@@H](CC(=O)O)C(=O)N[C@@H](C)C(=O)N[C@@H](CO)C(=O)N1CCC[C@H]1C(=O)N[C@@H](CCC(=O)O)C(=O)N[C@@H](CCC(=O)O)C(=O)N[C@@H](CC(C)C)C(=O)N[C@@H](CCC(N)=O)C(=O)N[C@@H](CCCNC(=N)N)C(=O)N[C@@H](Cc1ccc(O)cc1)C(=O)N[C@@H](Cc1ccc(O)cc1)C(=O)N[C@H](C(=O)N[C@@H](CO)C(=O)N[C@@H](CC(C)C)C(=O)N[C@@H](CCCNC(=N)N)C(=O)N[C@@H](Cc1c[nH]cn1)C(=O)N[C@@H](Cc1ccc(O)cc1)C(=O)N[C@@H](Cc1ccc(O)cc1)C(=O)N[C@@H](CC(N)=O)C(=O)N[C@@H](Cc1c[nH]c2ccccc12)C(=O)N[C@@H](CC(C)C)C(=O)N[C@H](C(=O)N[C@@H](CCCNC(=N)N)C(=O)N[C@@H](CCC(N)=O)C(=O)N[C@@H](CCCNC(=N)N)C(=O)N[C@@H](Cc1ccc(O)cc1)C(N)=O)[C@@H](C)O)C(C)C` [Compound 203, N{alpha-4}-(3-methylbutanoyl)-N{epsilon-7}-[2-(2-{2-[2-(2-{2-[(4S)-4-carboxy-4-(17-carboxyheptadecanamido)butanamido]ethoxy}ethoxy)acetamido]ethoxy}ethoxy)acetamido]-[4A,6A,7K,9E,18Q,22V,28Y,30W,31L]hPYY (4-36)], the Ki in assay [2] (setting [4]) is 0.75 nM; in assay [2] (Table 8, from DMSO stock, read-out: hY2R RLB Ki (nM) DMSO), 3 nM; in assay [1] (setting [3]), 4.6 nM; in assay [1] (pH7.1-7.2, assumed 10 mg/ml, read-out: RLB 7 (pH7.1-7.2)), 11.1 nM.
